{
  "source": "PubChem BioAssay (NCI)",
  "system": "P388/ADR leukemia",
  "test": "NCI tumour cell line growth inhibition, 48 h",
  "note": "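Growth conditions: 96-well plates. Treatment: test compound, 48 hours, 5 concentrations. Analysis: linear interpolation between bracketing concentrations; unreached endpoints set to highest concentration. TGI: total growth inhibition.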",
  "data": [
    {"smiles": "Nc1nc(=S)c2[nH]cnc2[nH]1", "values": [
      {"measurement": "TGI", "result": 12.9, "unit": "µM"}
    ]},
    {"smiles": "O=NN(CCCl)C(=O)NC1CCCCC1", "values": [
      {"measurement": "TGI", "result": 47.4, "unit": "µM"}
    ]}
  ]
}
